# Reference: US20170196802A1, “Long Acting Injectable Formulations” (Abon Pharmaceuticals, LLC, priority 2016, published 2017)
# Read-outs that look alike come from different tables or passages of the source.
# Experiments:
# [1] = weight gain, diabetes risk, dyslipidemia risk; cited from earlier work
# [2] = after oral administration of a 40 mg tablet; package insert; cited from earlier work
# [3] = pH dependence; cited from earlier work
# [4] = Pharmacokinetic study, intramuscular injection, four arm parallel; format: in vivo, male Sprague-Dawley Rats; details: male, Sprague-Dawley, im, rat
# Protocol: A long acting formulation is expected to suppress the maximum blood concentration (Cmax) and maintain therapeutic blood profiles for an extended period of time. […] To evaluate the in-vivo performance of our formulations, three suspensions of Lurasidone HCl were prepared with varying particle size and/or viscosity at 100 mg/mL with compositions given in Table 23, and with processes shown in FIGS. 11, 12 and 13 for Suspensions 1, 2, and 3, respectively. As a control, a solution of Lurasidone HCl was prepared at 2.5 mg/mL. […]
# The blood samples were collected, placed into chilled tubes containing sodium heparin, inverted several times to mix, and kept on ice until centrifugation. […] Samples were analyzed with LC-MS/MS against an eight point standard curve with concentrations ranging from 0.05 ng/mL to 100 ng/mL. […]
# Mass Spectrometer Conditions • Instrument: PE Sciex API4000 • Interface: Electrospray (“Turbo Ion Spray”) • Mode: Multiple reactions monitoring (MRM) • Gases: CUR 20, CAD 10, GS1 50, GS2 50 • Source Temperature: 500° C. • Voltages and Ions Monitored:
# The formulations were well tolerated, and no adverse local or systemic reactions were observed following intramuscular administration of lurasidone to the animals. (Pharmacokinetic parameters were calculated with Phoenix WinNonlin version 6.4). […]
"half-life ([4]; 1.5 mg/kg, calculated based on terminal phase plasma concentrations above 2% of Cmax)","half-life ([4]; plasma, 45 mg/kg)",Compound,metabolic effects [1],half-life [2],solubility profile [3]
,,CN1CCN(C2=Nc3cc(Cl)ccc3Nc3ccccc32)CC1 [clozapine],moderate to high,,
10 h,≤ 505 h,O=C1[C@@H]2[C@H]3CC[C@H](C3)[C@@H]2C(=O)N1C[C@@H]1CCCC[C@H]1CN1CCN(c2nsc3ccccc23)CC1 [lurasidone],low,18 h,lower solubility at higher pH values
,,Cc1cc2c(s1)Nc1ccccc1N=C2N1CCN(C)CC1 [olanzapine],moderate to high,,
,,OCCOCCN1CCN(C2=Nc3ccccc3Sc3ccccc32)CC1 [quetiapine],moderate to high,,
